The source of these data is patent publication US7915285B2, “Method for treating drug and behavioral addictions” (priority 2005, dated 2011).

SMILES strings stand for the structures.

This assay concerns nucleus accumbens dopamine. Description: Nucleus accumbens dopamine microdialysis after 5 days of morphine and ibudilast (Example 6). It is filed as in vivo, rat. The following applies: for nucleus accumbens dopamine levels: 7.5 mg/kg. The protocol: Pathogen-free adult male Sprague-Dawley rats were used in all experiments. Rats (300-325 g at the time of arrival; Harlan Labs, Madison, Wis.) were housed in temperature (23±3° C.) and light (12:12 light:dark; lights on at 0700 hours) controlled rooms with standard rodent chow and water available ad libitum. All procedures were approved by the Institutional Animal Care and Use Committee at the University of Colorado at Boulder. Upon arrival male Sprague Dawley rats (300-400 g) were housed in pairs and allowed to acclimatize to the animal colony for one week. 5×90 minute sessions of handling by investigators and animal acclimatization to the microdialysis environment were performed during the following week.
Microdialysis guide cannula implantation was performed under halothane anaesthesia. CMA 12 guide cannulae (CMA Microdialysis) were aimed at either the right or left nucleus accumbens (AP=+1.7, LM=±0.8, DV=−6.0) in a counterbalanced fashion. Coordinates were from bregma using the atlas of Paxinos and Watson (1998). The guide cannulae and a tether screw (CMA Microdialysis) were anchored to the skull with three jeweler's screws and dental cement. Rats were individually housed after surgery and allowed to recover for one week.
Animals then began a 7 day dosing regimen (groups of 6 animals at a time, n=10 per treatment group). […] Body weights were recorded prior to each dosing session to allow for accurate dose calculations and to track the opioid induced weight loss.
Microdialysis probes (CMA 12, MW cut-off 20,000 Da, 2 mm active membrane) were inserted into the guide cannulae and rats were placed in separate Plexiglas infusion bowls with food and water available ad libitum. […] Dialysates were analyzed by HPLC within 2 weeks of collection.
Dopamine in the dialysates was determined using an ESA 5600A COULARRAY detector with an ESA 5014B analytical cell and an ESA 5020 guard cell connected to an ESA HR80 column (C18, […], 80×3 mm) which was maintained at 30° C. […] Quantitative comparisons were made with external standards (Sigma-Aldrich, St Louis, Mo.) that were run each day. […]

For the compound `CC(C)C(=O)c1c(C(C)C)nn2ccccc12` [ibudilast, 2-methyl-1-(2-(1-methylethyl)pyrazolo(1,5-a)pyridin-3-yl)1-propanone], the “nucleus accumbens dopamine levels” value is, setting by setting: (during naloxone precipitated opioid withdrawal, FIG. 10) “reduced nucleus accumbens dopamine levels”; (following morphine administration, spontaneous opioid withdrawal, FIG. 11) “also reduced nucleus accumbens dopamine levels”. Further, the “morphine induced nucleus accumbens dopamine increases” value (morphine-dependent animals, during morphine administration and withdrawal, FIGS. 10 and 11) was “dramatically reduced morphine induced nucleus accumbens dopamine increases”.
